Where two headings read alike, the source gives them in different places.
Tests used:
Assay type in all cases: in vivo
[1] = system: Phytophthora infestans, pathogen of tomato late blight; conditions: foliage application
[2] = system: Pythium ultimum, pathogen of cucumber damping-off; test: Cucumber damping-off control test, seed treatment (Test Example 2)
Method: (§1) Control value=100(A−B)/A “Equation 1”
Generally, the control value expected for the case in which the given two kinds of active ingredient compounds are mixed and used for the treatment, the so-called control value expectation is calculated from the following Colby's calculating equation. E=X+Y−(X×Y)/100 “Equation 2”
E: Control value (%) expected for the case in which active ingredient compound A in M ppm or in M g per 100 kg of seeds and active ingredient compound B in N ppm or in N g per 100 kg of seeds are mixed and used for treatment (hereinbelow referred to as “control value expectation”) “Synergetic effect(%)”=(Actual control value)×100/(Control value expectation)
An acetone solution of the compound (1b) and an acetone solution of ethaboxam were mixed to prepare mixed liquids containing the compound (1b) and ethaboxam in predetermined concentration. These mixed liquids were adhered on the surface of cucumber (Sagamihanjiro) seeds and allowed to stand still overnight to obtain treated seeds. A plastic pot was filled with sandy soil and the treated seeds were disseminated on it. Then the seeds were covered with sandy soil which had been mixed with a bran medium on which Pythium ultimum, pathogen of cucumber damping-off, had been allowed to grow. They were irrigated and allowed to grow at 18° C. under humidity for 13 days, and thereafter control effect was checked. The incidence of disease was calculated by Equation 3 and the control value was calculated by Equation 1 based on the incidence of disease.
As a comparison, acetone solutions containing the compound (1b) in the predetermined concentration and an acetone solution containing ethaboxam in the predetermined concentration were prepared and subjected to similar tests. Incidence of disease=(Number of no emerging seedlings and number of seedlings in which development of disease was observed)×100/(Number of total disseminated seeds) “Equation 3”

[3] = system: Plasmopara viticola, pathogen of grape downy mildew; test: Grape downy mildew control test, foliage application (Test Example 3)
Text: as §1
A plastic pot was filled with sandy soil, and grape (Berry A) was then disseminated. The grape was allowed to grow in a green house for 40 days. A wettable powder of the compound (1b) and a wettable powder of ethaboxam were respectively diluted with water and then tank-mixed so as to prepare tank-mixed liquids containing compound (1b) and ethaboxam in predetermined concentration. The tank-mixed liquids were subjected to foliage application such that they could be sufficiently adhered to the underside of the leaves of the aforementioned grape plants. After the foliage application, the plants were air-dried. Thereafter, an aqueous suspension of sporangia of Plasmopara viticola, pathogen of grape downy mildew, was sprayed on the grape plants to inoculate the pathogen. They were placed at 23° C. under high humidity for one day after the inoculation, cultured in a greenhouse at 23° C. for 5 days. The grape plants were thereafter placed at 23° C. under high humidity for one day and infected area was checked.
As a comparison, the respective wettable powders described above were diluted with water in predetermined concentration so as to prepare compound (1b) liquids and a ethaboxam liquid respectively and they were subjected to similar disease control test. In order to calculate the control value, the incidence of disease was also determined in the case in which the plants had not been treated with the agent. The relative incidence of disease of each treated area was determined as the incidence of disease of the area assuming that the incidence of disease of untreated area was represented as 100, and the control value was calculated by Equation 1 based on the incidence of disease thus determined.

SMILES	Actual control value ([1]; ethaboxam 0.4 ppm alone) [%]	Actual control value ([2]; ethaboxam 10 g ai/100 kg-seed alone) [%]	Actual control value ([3]; ethaboxam 0.4 ppm alone) [%]	Actual control value ([3]; ethaboxam 2 ppm alone) [%]	Actual control value ([1]; compound (1b) 10 ppm alone) [%]	Actual control value ([1]; compound (1b) 50 ppm alone) [%]	Actual control value ([2]; compound (1b) 5 g ai/100 kg-seed alone) [%]	Actual control value ([2]; compound (1b) 10 g ai/100 kg-seed alone) [%]	Actual control value ([2]; compound (1b) 20 g ai/100 kg-seed alone) [%]	Actual control value ([3]; compound (1b) 2 ppm alone) [%]
CCNc1nc(CC)c(C(=O)NC(C#N)c2cccs2)s1 (stereo not shown) [Ethaboxam, ethaboxam, reference compound]	10	73	1	35	–	–	–	–	–	–
CNC(=O)C(OC)c1ccccc1COc1cc(C)ccc1C (racemic) [Compound (1b)]	–	–	–	–	5	25	6.7	6.7	13	2

From patent publication US8609585B2 (priority 2008, dated 2013)
